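Tested at 5 concentrations; 48 h exposure; 96-well plates; endpoints linearly interpolated, else capped at highest concentration. Here, GI50 denotes the concentration required for 50% inhibition of growth.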 Activity calls are given as the source filed them. No stated cut-off is given here; in the data, active = GI50 up to about 1.1 µM and inactive = higher.
Assays:
Test in all cases: DTP human tumour cell line panel, 48 h
786-0 = tested on: 786-0
A498 = tested on: A498
A549 = tested on: A549
ACHN = tested on: ACHN
BT-549 = tested on: BT-549
CAKI-1 = tested on: CAKI-1
CCRF-CEM = tested on: CCRF-CEM
COLO 205 = tested on: COLO 205
DU-145 = tested on: DU-145
EKVX = tested on: EKVX
HCC 2998 = tested on: HCC 2998
HCT-116 = tested on: HCT-116
HCT-15 = tested on: HCT-15
HL-60 = tested on: HL-60
HOP-62 = tested on: HOP-62
HOP-92 = tested on: HOP-92
HT-29 = tested on: HT-29
Hs-578T = tested on: Hs-578T
IGROV-1 = tested on: IGROV-1
K562 = tested on: K562
KM12 = tested on: KM12
LOX IMVI = tested on: LOX IMVI
M14 = tested on: M14
MCF7 = tested on: MCF7
MDA-MB-231 = tested on: MDA-MB-231
MDA-MB-435 = tested on: MDA-MB-435
MDA-N = tested on: MDA-N
MOLT-4 = tested on: MOLT-4
Malme-3M = tested on: Malme-3M
NCI-H226 = tested on: NCI-H226
NCI-H23 = tested on: NCI-H23
NCI-H460 = tested on: NCI-H460
NCI-H522 = tested on: NCI-H522
NCI/ADR-RES = tested on: NCI/ADR-RES
OVCAR-3 = tested on: OVCAR-3
OVCAR-4 = tested on: OVCAR-4
OVCAR-5 = tested on: OVCAR-5
OVCAR-8 = tested on: OVCAR-8
PC-3 = tested on: PC-3
RPMI-8226 = tested on: RPMI-8226
RXF 393 = tested on: RXF 393
SF-268 = tested on: SF-268
SF-295 = tested on: SF-295
SF-539 = tested on: SF-539
SK-MEL-28 = tested on: SK-MEL-28
SK-MEL-2 = tested on: SK-MEL-2
SK-MEL-5 = tested on: SK-MEL-5
SK-OV-3 = tested on: SK-OV-3
SN12C = tested on: SN12C
SNB-19 = tested on: SNB-19
SNB-75 = tested on: SNB-75
SR = tested on: SR
SW-620 = tested on: SW-620
T47D = tested on: T47D
TK-10 = tested on: TK-10
U-251 = tested on: U-251
UACC-257 = tested on: UACC-257
UACC-62 = tested on: UACC-62
UO-31 = tested on: UO-31

O=C1C(Cl)=C(N2CCC[C@@H]2CO)C(=O)c2c(O)ccc(O)c21 was tested, and the GI50 (786-0) was 1760 nM (inactive), the GI50 (A498) was 2900 nM (inactive) and the GI50 (A549) was 2080 nM (inactive). For the same compound, the GI50 (ACHN) was 1600 nM (inactive), the GI50 (BT-549) was 1900 nM (inactive) and the GI50 (CAKI-1) was 1580 nM (inactive). For the same compound, the GI50 (CCRF-CEM) was 244 nM (active), the GI50 (COLO 205) was 1550 nM (inactive) and the GI50 (DU-145) was 1840 nM (inactive). The GI50 (EKVX) was 1870 nM (inactive), the GI50 (HCC 2998) was 2020 nM (inactive) and the GI50 (HCT-116) was 1440 nM (inactive). For the same compound, the GI50 (HCT-15) was 1870 nM, the GI50 (HL-60) was 485 nM (active) and the GI50 (HOP-62) was 1580 nM (inactive). The GI50 (HOP-92) was 1660 nM (inactive), the GI50 (HT-29) was 2150 nM (inactive) and the GI50 (Hs-578T) was 2060 nM (inactive). The GI50 (IGROV-1) was 1790 nM (inactive), the GI50 (K562) was 347 nM (active) and the GI50 (KM12) was 1750 nM (inactive). The GI50 (LOX IMVI) was 1470 nM (inactive), the GI50 (M14) was 1670 nM (inactive) and the GI50 (MCF7) was 1160 nM (inactive). For the same compound, the GI50 (MDA-MB-231) was 2020 nM (inactive), the GI50 (MDA-MB-435) was 1510 nM (inactive) and the GI50 (MDA-N) was 1540 nM (inactive). For the same compound, the GI50 (MOLT-4) was 269 nM (active), the GI50 (Malme-3M) was 1640 nM (inactive) and the GI50 (NCI-H226) was 1710 nM (inactive). For the same compound, the GI50 (NCI-H23) was 1640 nM (inactive), the GI50 (NCI-H460) was 1730 nM (inactive) and the GI50 (NCI-H522) was 1120 nM (active). The GI50 (NCI/ADR-RES) was 2410 nM (inactive), the GI50 (OVCAR-3) was 1670 nM (inactive) and the GI50 (OVCAR-4) was 1760 nM (inactive). The GI50 (OVCAR-5) was 1690 nM (inactive), the GI50 (OVCAR-8) was 2000 nM (inactive) and the GI50 (PC-3) was 1910 nM (inactive). For the same compound, the GI50 (RPMI-8226) was 395 nM (active), the GI50 (RXF 393) was 1600 nM (inactive) and the GI50 (SF-268) was 1290 nM (inactive). For the same compound, the GI50 (SF-295) was 1790 nM (inactive), the GI50 (SF-539) was 1920 nM (inactive) and the GI50 (SK-MEL-28) was 1820 nM (inactive). The GI50 (SK-MEL-2) was 1570 nM (inactive), the GI50 (SK-MEL-5) was 1010 nM (active) and the GI50 (SK-OV-3) was 2900 nM (inactive). For the same compound, the GI50 (SN12C) was 1790 nM (inactive), the GI50 (SNB-19) was 1660 nM (inactive) and the GI50 (SNB-75) was 1690 nM (inactive). For the same compound, the GI50 (SR) was 2180 nM (inactive), the GI50 (SW-620) was 1400 nM (inactive) and the GI50 (T47D) was 1780 nM (inactive). For the same compound, the GI50 (TK-10) was 1880 nM (inactive), the GI50 (U-251) was 1830 nM (inactive) and the GI50 (UACC-257) was 1760 nM (inactive). For the same compound, the GI50 (UACC-62) was 1360 nM (inactive) and the GI50 (UO-31) was 1820 nM (inactive).

Source: ChEMBL document CHEMBL1201862, “PubChem BioAssay data set” (2004)
